Assay results from BindingDB's records for doi:10.1016/S0960-894X(01)81219-1 (1993).

Assay: The inhibitory constant was evaluated against Endothelin A receptor in rabbit renal artery tissue

Q: With `CC[C@H](C)[C@H](NC(=O)[C@H](CC(=O)O)NC(=O)[C@H](CCCN)NC(=O)[C@@H](Cc1c[nH]c2ccccc12)NC(C)=O)C(=O)N[C@H](C(=O)N[C@@H](Cc1c[nH]c2ccccc12)C(=O)O)[C@@H](C)CC` [(S)-3-{(S)-2-[(R)-2-Acetylamino-3-(1H-indol-3-yl)-propionylamino]-5-amino-pentanoylamino}-N-((1S,2R)-1-{(1S,2R)-1-[(S)-1-carboxy-2-(1H-indol-3-yl)-ethylcarbamoyl]-2-methyl-butylcarbamoyl}-2-methyl-butyl)-succinamic acid] as the molecule, how does the IC50 read?
A: 0.13 µM
